Data: patent US20230047816A1 (priority 2018, published 2023)

Tests used:
Format in all cases: cell-based
T-47D = assay: Combination with anticancer agents, T-47D; settings: Homo sapiens, T47D, anticancer agent alone
Procedure: (§1) All cells can be incubated in the plates overnight at 37° C., 5% 002 incubator with different medium.

BT-549 = assay: Combination with anticancer agents, BT-549; settings: Homo sapiens, anticancer agent alone
Procedure: as §1

Hs-578T = assay: Combination with anticancer agents, Hs-578T; settings: Homo sapiens, anticancer agent alone
Procedure: as §1

MDA-MB-231 = assay: Combination with anticancer agents, MDA-MB-231; settings: Homo sapiens, anticancer agent alone
Procedure: as §1

MCF-7 = assay: Combination with anticancer agents, MCF-7; settings: Homo sapiens, MCF7, anticancer agent alone
Procedure: as §1

IC50 (T-47D): 21 µM
IC50 (BT-549): 31 µM
IC50 (Hs-578T): 36 µM
IC50 (MDA-MB-231): 14.6 µM
IC50 (MCF-7): 14.5 µM
SMILES: NC(=O)c1cccc2cn(-c3ccc([C@@H]4CCCNC4)cc3)nc12 [Niraparib]
